Reference: the supplement of paper PMC13380429

Assays:
Details in all cases: 72 h
HepG2 [1] = experiment: relative viability EC50 (midpoint between 100% and the lowest measured viability); higher = less toxic
Calu-3 [2] = experiment: as above
U2OS [3] = experiment: as above
Caco-2 [4] = experiment: as above
Vero E6 [5] = experiment: as above
HepG2 [6] = experiment: drug sensitivity score (DSS) for viability; higher = more toxic; extreme values may be limits of the assay
Calu-3 [7] = experiment: as above
U2OS [8] = experiment: as above
Caco-2 [9] = experiment: as above
Vero E6 [10] = experiment: as above
HepG2 [11] = experiment: cell viability relative to DMSO; higher = less toxic
Calu-3 [12] = experiment: as above
U2OS [13] = experiment: as above
Caco-2 [14] = experiment: as above
Vero E6 [15] = experiment: as above

CCCNC(=O)N1N=C(c2ccc(N)cc2)c2cc3c(cc2C1C)OCO3 (stereo not given) [SYM-2206]
relative viability EC50 (HepG2 [1]): > 10 µM
relative viability EC50 (Calu-3 [2]): > 10 µM
relative viability EC50 (U2OS [3]): > 10 µM
relative viability EC50 (Caco-2 [4]): > 10 µM
relative viability EC50 (Vero E6 [5]): > 10 µM
drug sensitivity score (HepG2 [6]): 0
drug sensitivity score (Calu-3 [7]): 0
drug sensitivity score (U2OS [8]): 0
drug sensitivity score (Caco-2 [9]): 0
drug sensitivity score (Vero E6 [10]): 0
cell viability (HepG2 [11]; 1 nM): 91.9%
cell viability (HepG2 [11]; 10 nM): 94.8%
cell viability (HepG2 [11]; 100 nM): 95.2%
cell viability (HepG2 [11]; 1000 nM): 93%
cell viability (HepG2 [11]; 10000 nM): 93.5%
cell viability (Calu-3 [12]; 1 nM): 86.9%
cell viability (Calu-3 [12]; 10 nM): 101%
cell viability (Calu-3 [12]; 100 nM): 109%
cell viability (Calu-3 [12]; 1000 nM): 111%
cell viability (Calu-3 [12]; 10000 nM): 119%
cell viability (U2OS [13]; 1 nM): 95.1%
cell viability (U2OS [13]; 10 nM): 101%
cell viability (U2OS [13]; 100 nM): 97.4%
cell viability (U2OS [13]; 1000 nM): 103%
cell viability (U2OS [13]; 10000 nM): 101%
cell viability (Caco-2 [14]; 1 nM): 96.6%
cell viability (Caco-2 [14]; 10 nM): 102%
cell viability (Caco-2 [14]; 100 nM): 95.5%
cell viability (Caco-2 [14]; 1000 nM): 94.2%
cell viability (Caco-2 [14]; 10000 nM): 100%
cell viability (Vero E6 [15]; 1 nM): 98.5%
cell viability (Vero E6 [15]; 10 nM): 92.5%
cell viability (Vero E6 [15]; 100 nM): 97.9%
cell viability (Vero E6 [15]; 1000 nM): 88.9%
cell viability (Vero E6 [15]; 10000 nM): 98.6%

CN(C)C/C=C/C(=O)Nc1cccc(C(=O)Nc2cccc(Nc3ncc(Cl)c(-c4c[nH]c5ccccc45)n3)c2)c1 [THZ2]
relative viability EC50 (HepG2 [1]): 0.0771 µM
relative viability EC50 (Calu-3 [2]): 0.154 µM
relative viability EC50 (U2OS [3]): 0.303 µM
relative viability EC50 (Caco-2 [4]): 1.53 µM
relative viability EC50 (Vero E6 [5]): 2.75 µM
drug sensitivity score (HepG2 [6]): 24.2
drug sensitivity score (Calu-3 [7]): 14.9
drug sensitivity score (U2OS [8]): 16.8
drug sensitivity score (Caco-2 [9]): 7.1
drug sensitivity score (Vero E6 [10]): 5.9
cell viability (HepG2 [11]; 1 nM): 114%
cell viability (HepG2 [11]; 10 nM): 89.4%
cell viability (HepG2 [11]; 100 nM): 44.7%
cell viability (HepG2 [11]; 1000 nM): 3.5%
cell viability (HepG2 [11]; 10000 nM): 2.7%
cell viability (Calu-3 [12]; 1 nM): 103%
cell viability (Calu-3 [12]; 10 nM): 104%
cell viability (Calu-3 [12]; 100 nM): 83.1%
cell viability (Calu-3 [12]; 1000 nM): 33.5%
cell viability (Calu-3 [12]; 10000 nM): 42.9%
cell viability (U2OS [13]; 1 nM): 97.8%
cell viability (U2OS [13]; 10 nM): 102%
cell viability (U2OS [13]; 100 nM): 96.6%
cell viability (U2OS [13]; 1000 nM): 10.2%
cell viability (U2OS [13]; 10000 nM): 8.3%
cell viability (Caco-2 [14]; 1 nM): 97.8%
cell viability (Caco-2 [14]; 10 nM): 99.9%
cell viability (Caco-2 [14]; 100 nM): 98.4%
cell viability (Caco-2 [14]; 1000 nM): 80.9%
cell viability (Caco-2 [14]; 10000 nM): 25.6%
cell viability (Vero E6 [15]; 1 nM): 104%
cell viability (Vero E6 [15]; 10 nM): 103%
cell viability (Vero E6 [15]; 100 nM): 103%
cell viability (Vero E6 [15]; 1000 nM): 95%
cell viability (Vero E6 [15]; 10000 nM): 6.5%

CCCCCCCCCCCC[N+](C)(C)CCOc1ccccc1 [domiphen]
relative viability EC50 (HepG2 [1]): 2.46 µM
relative viability EC50 (Calu-3 [2]): 3.31 µM
relative viability EC50 (U2OS [3]): 2.8 µM
relative viability EC50 (Caco-2 [4]): 3.22 µM
relative viability EC50 (Vero E6 [5]): > 10 µM
drug sensitivity score (HepG2 [6]): 4.8
drug sensitivity score (Calu-3 [7]): 3.9
drug sensitivity score (U2OS [8]): 5.6
drug sensitivity score (Caco-2 [9]): 4.9
drug sensitivity score (Vero E6 [10]): 0.5
cell viability (HepG2 [11]; 1 nM): 103%
cell viability (HepG2 [11]; 10 nM): 95.3%
cell viability (HepG2 [11]; 100 nM): 100%
cell viability (HepG2 [11]; 1000 nM): 94%
cell viability (HepG2 [11]; 10000 nM): 30%
cell viability (Calu-3 [12]; 1 nM): 90.9%
cell viability (Calu-3 [12]; 10 nM): 92.7%
cell viability (Calu-3 [12]; 100 nM): 91.5%
cell viability (Calu-3 [12]; 1000 nM): 102%
cell viability (Calu-3 [12]; 10000 nM): 26.8%
cell viability (U2OS [13]; 1 nM): 93.6%
cell viability (U2OS [13]; 10 nM): 102%
cell viability (U2OS [13]; 100 nM): 94.9%
cell viability (U2OS [13]; 1000 nM): 95.7%
cell viability (U2OS [13]; 10000 nM): 9.5%
cell viability (Caco-2 [14]; 1 nM): 85.6%
cell viability (Caco-2 [14]; 10 nM): 99.3%
cell viability (Caco-2 [14]; 100 nM): 95%
cell viability (Caco-2 [14]; 1000 nM): 101%
cell viability (Caco-2 [14]; 10000 nM): 11.1%
cell viability (Vero E6 [15]; 1 nM): 100%
cell viability (Vero E6 [15]; 10 nM): 98.8%
cell viability (Vero E6 [15]; 100 nM): 96.6%
cell viability (Vero E6 [15]; 1000 nM): 93%
cell viability (Vero E6 [15]; 10000 nM): 83.8%

CC(C)N(C[C@H]1O[C@@H](n2cnc3c(N)ncnc32)[C@H](O)[C@@H]1O)[C@H]1C[C@@H](CCc2nc3cc(C(C)(C)C)ccc3[nH]2)C1 [EPZ-5676]
relative viability EC50 (HepG2 [1]): > 10 µM
relative viability EC50 (Calu-3 [2]): > 10 µM
relative viability EC50 (U2OS [3]): > 10 µM
relative viability EC50 (Caco-2 [4]): > 10 µM
relative viability EC50 (Vero E6 [5]): > 10 µM
drug sensitivity score (HepG2 [6]): 0
drug sensitivity score (Calu-3 [7]): 0
drug sensitivity score (U2OS [8]): 0
drug sensitivity score (Caco-2 [9]): 0
drug sensitivity score (Vero E6 [10]): 0
cell viability (HepG2 [11]; 1 nM): 106%
cell viability (HepG2 [11]; 10 nM): 94.9%
cell viability (HepG2 [11]; 100 nM): 89.7%
cell viability (HepG2 [11]; 1000 nM): 105%
cell viability (HepG2 [11]; 10000 nM): 108%
cell viability (Calu-3 [12]; 1 nM): 101%
cell viability (Calu-3 [12]; 10 nM): 102%
cell viability (Calu-3 [12]; 100 nM): 95.4%
cell viability (Calu-3 [12]; 1000 nM): 104%
cell viability (Calu-3 [12]; 10000 nM): 104%
cell viability (U2OS [13]; 1 nM): 105%
cell viability (U2OS [13]; 10 nM): 97.5%
cell viability (U2OS [13]; 100 nM): 101%
cell viability (U2OS [13]; 1000 nM): 102%
cell viability (U2OS [13]; 10000 nM): 111%
cell viability (Caco-2 [14]; 1 nM): 90.7%
cell viability (Caco-2 [14]; 10 nM): 99.2%
cell viability (Caco-2 [14]; 100 nM): 100%
cell viability (Caco-2 [14]; 1000 nM): 97.1%
cell viability (Caco-2 [14]; 10000 nM): 101%
cell viability (Vero E6 [15]; 1 nM): 106%
cell viability (Vero E6 [15]; 10 nM): 106%
cell viability (Vero E6 [15]; 100 nM): 98.9%
cell viability (Vero E6 [15]; 1000 nM): 102%
cell viability (Vero E6 [15]; 10000 nM): 106%

N#CCC(=O)NN [cyacetacide]
relative viability EC50 (HepG2 [1]): > 10 µM
relative viability EC50 (Calu-3 [2]): > 10 µM
relative viability EC50 (U2OS [3]): > 10 µM
relative viability EC50 (Caco-2 [4]): > 10 µM
relative viability EC50 (Vero E6 [5]): > 10 µM
drug sensitivity score (HepG2 [6]): 0
drug sensitivity score (Calu-3 [7]): 0
drug sensitivity score (U2OS [8]): 0
drug sensitivity score (Caco-2 [9]): 0
drug sensitivity score (Vero E6 [10]): 0
cell viability (HepG2 [11]; 1 nM): 95.7%
cell viability (HepG2 [11]; 10 nM): 91.9%
cell viability (HepG2 [11]; 100 nM): 97%
cell viability (HepG2 [11]; 1000 nM): 97.4%
cell viability (HepG2 [11]; 10000 nM): 93.4%
cell viability (Calu-3 [12]; 1 nM): 84%
cell viability (Calu-3 [12]; 10 nM): 103%
cell viability (Calu-3 [12]; 100 nM): 96.3%
cell viability (Calu-3 [12]; 1000 nM): 95.7%
cell viability (Calu-3 [12]; 10000 nM): 108%
cell viability (U2OS [13]; 1 nM): 95.5%
cell viability (U2OS [13]; 10 nM): 103%
cell viability (U2OS [13]; 100 nM): 96%
cell viability (U2OS [13]; 1000 nM): 94%
cell viability (U2OS [13]; 10000 nM): 102%
cell viability (Caco-2 [14]; 1 nM): 98.2%
cell viability (Caco-2 [14]; 10 nM): 102%
cell viability (Caco-2 [14]; 100 nM): 100%
cell viability (Caco-2 [14]; 1000 nM): 95.6%
cell viability (Caco-2 [14]; 10000 nM): 97.8%
cell viability (Vero E6 [15]; 1 nM): 106%
cell viability (Vero E6 [15]; 10 nM): 98.6%
cell viability (Vero E6 [15]; 100 nM): 102%
cell viability (Vero E6 [15]; 1000 nM): 108%
cell viability (Vero E6 [15]; 10000 nM): 102%

N[C@@H]1CN(c2c(F)cc3c(=O)c(C(=O)O)cn([C@@H]4C[C@@H]4F)c3c2Cl)CC12CC2 [sitafloxacin]
relative viability EC50 (HepG2 [1]): > 10 µM
relative viability EC50 (Calu-3 [2]): > 10 µM
relative viability EC50 (U2OS [3]): > 10 µM
relative viability EC50 (Caco-2 [4]): > 10 µM
relative viability EC50 (Vero E6 [5]): > 10 µM
drug sensitivity score (HepG2 [6]): 0
drug sensitivity score (Calu-3 [7]): 0
drug sensitivity score (U2OS [8]): 0
drug sensitivity score (Caco-2 [9]): 0
drug sensitivity score (Vero E6 [10]): 0
cell viability (HepG2 [11]; 1 nM): 107%
cell viability (HepG2 [11]; 10 nM): 101%
cell viability (HepG2 [11]; 100 nM): 97.5%
cell viability (HepG2 [11]; 1000 nM): 110%
cell viability (HepG2 [11]; 10000 nM): 108%
cell viability (Calu-3 [12]; 1 nM): 98.5%
cell viability (Calu-3 [12]; 10 nM): 94%
cell viability (Calu-3 [12]; 100 nM): 98%
cell viability (Calu-3 [12]; 1000 nM): 96.7%
cell viability (Calu-3 [12]; 10000 nM): 93.9%
cell viability (U2OS [13]; 1 nM): 104%
cell viability (U2OS [13]; 10 nM): 96.3%
cell viability (U2OS [13]; 100 nM): 96%
cell viability (U2OS [13]; 1000 nM): 95.8%
cell viability (U2OS [13]; 10000 nM): 96.8%
cell viability (Caco-2 [14]; 1 nM): 95.2%
cell viability (Caco-2 [14]; 10 nM): 95.6%
cell viability (Caco-2 [14]; 100 nM): 91.6%
cell viability (Caco-2 [14]; 1000 nM): 106%
cell viability (Caco-2 [14]; 10000 nM): 97.2%
cell viability (Vero E6 [15]; 1 nM): 91.3%
cell viability (Vero E6 [15]; 10 nM): 98%
cell viability (Vero E6 [15]; 100 nM): 91.6%
cell viability (Vero E6 [15]; 1000 nM): 99%
cell viability (Vero E6 [15]; 10000 nM): 106%
